Patent publication US20050208468A1, “Assays with primary cells” (priority 2003, published 2005)

How the values were obtained:
[1] = system: primary human renal proximal tubule epithelial (HRPTE) cells; assay: proliferative response (S-phase index) of primary HRPTE cells; assay type: cell-based; settings: HRPTE cells in 96-well microplate wells or on coded carriers; various concentrations; FIG. 6
Description: This example describes how multiplexed analysis using coded carriers may be used to assay the effects of camptothecin on the proliferative response of primary human renal proximal tubule epithelial (HRPTE) cells, in accordance with aspects of the present teachings; see FIG. 6.
Specifically, HRPTE cells are grown directly in wells of a standard 96-well microplate, to three different cell densities (indicated as the stated number of cells), or on coded carriers that optionally may be placed in wells of the microplate. An “S-phase index” (e.g., the fraction of cells in the S-phase of the cell cycle) is used as a measure of cell proliferation. […] This reduction may be particularly significant in assays on primary cells, because primary cells typically are difficult to obtain and maintain.

[2] = system: HRPTE cells; assay: cytotoxicity response (death index, live/dead assay) of HRPTE cells; assay type: cell-based, human; settings: HRPTE cells in 96-well microplate wells or on coded carriers; various concentrations; FIG. 7
Description: This example describes how multiplexed analysis using coded carriers may be used to study the cytotoxicity response of HRPTE cells to staurosporine, in accordance with aspects of the present teachings; see FIG. 7.
Specifically, HRPTE cells are grown directly attached to wells of a standard 96-well microplate, or on coded carriers that optionally may be placed in wells of the microplate. A “death index” (e.g., the fraction of observed cells that are dead) may be used as a measure of cytotoxicity. The death index may be computed using any suitable mechanism, such as a fluorescence-based “live/dead assay.” In an exemplary version of the assay, live cells are labeled green using a membrane-permeant calcein AM, which is cleaved by esterases in live cells to yield cytoplasmic green fluorescence, and dead cells are labeled red using a membrane-impermeant ethidium homodimer-1, which passes through the compromised membranes of dead cells to label nucleic acids with red fluorescence. […] This reduction may be particularly significant in assays on primary cells, because primary cells typically are difficult to obtain and maintain.

[3] = system: PPARγ; assay: PPARγ activity assay based on PEPCK expression, coded carriers in a shared fluid volume; assay type: cell-based, human; settings: four donor samples in a shared fluid volume; four days; FIG. 12
Description: This differentiation may be visualized readily and scored by staining lipid droplets that accumulate in the cytoplasm of the adipocytes during and/or after their differentiation. Furthermore, this adipocyte differentiation and/or activation of PPARγ may be followed by measuring the expression levels (RNA and/or protein) of PPARγ target genes (direct or indirect targets), such as PEPCK (phosphoenolpyruvate carboxykinsae) and/or FABP4 (fatty acid binding protein 4), among others.
Staining was via indirect immunofluorescence. Cells were counterstained with a nuclear dye (Hoechst) for data normalization, here and in other assays. […] Each sample of primary cells corresponds to pre-adipocytes isolated from visceral tissue (samples starting with the letter “V”) or isolated from subcutaneous tissue (samples starting with the letters “SC”) and were supplied by Cambrex. […] Each sample was connected to a distinct class of coded carriers (having a distinct code) to permit identification of the sample after combining the different classes of carrier and samples in a shared volume. […] Lipid accumulation and PEPCK expression were then measured with the samples still disposed in the same microplate wells. […]

SMILES: CC[C@@]1(O)C(=O)OCc2c1cc1n(c2=O)Cc2cc3ccccc3nc2-1 [camptothecin]
- S-phase index (measure of cell proliferation) [1]: S-phase index generally decreases with increasing camptothecin concentration

SMILES: CN[C@@H]1C[C@H]2O[C@@](C)([C@@H]1OC)n1c3ccccc3c3c4c(c5c6ccccc6n2c5c31)C(=O)NC4 [staurosporine]
- death index (fraction of dead cells) [2]: generally increases with increasing staurosporine concentration

SMILES: COc1ccc2c(c1)c(CC(=O)O)c(C)n2C(=O)c1ccc(Cl)cc1 [Indomethacin, indomethacin]
- induction of PEPCK expression as a measure of PPARγ activity [3]: relatively strong induction
